From PMC8576102, “Structure–Activity Relationship of Novel Second-Generation Synthetic Cathinones: Mechanism of Action, Locomotion, Reward, and Immediate-Early Genes” (Frontiers in Pharmacology, 2021)

How the values were obtained:
[1] = target: T1, hDAT (Homo sapiens, UniProt Q01959); assay: Uptake inhibition assay, [3H]MPP+ uptake in transfected HEK293 cells; type: cell-based; details: for hDAT/hSERT ratio: 1/DAT IC50: 1/SERT IC50
T1 construct: YFP (yellow-fluorescent protein); expressed in transfected cells
T1 sequence (Q01959 whole entry): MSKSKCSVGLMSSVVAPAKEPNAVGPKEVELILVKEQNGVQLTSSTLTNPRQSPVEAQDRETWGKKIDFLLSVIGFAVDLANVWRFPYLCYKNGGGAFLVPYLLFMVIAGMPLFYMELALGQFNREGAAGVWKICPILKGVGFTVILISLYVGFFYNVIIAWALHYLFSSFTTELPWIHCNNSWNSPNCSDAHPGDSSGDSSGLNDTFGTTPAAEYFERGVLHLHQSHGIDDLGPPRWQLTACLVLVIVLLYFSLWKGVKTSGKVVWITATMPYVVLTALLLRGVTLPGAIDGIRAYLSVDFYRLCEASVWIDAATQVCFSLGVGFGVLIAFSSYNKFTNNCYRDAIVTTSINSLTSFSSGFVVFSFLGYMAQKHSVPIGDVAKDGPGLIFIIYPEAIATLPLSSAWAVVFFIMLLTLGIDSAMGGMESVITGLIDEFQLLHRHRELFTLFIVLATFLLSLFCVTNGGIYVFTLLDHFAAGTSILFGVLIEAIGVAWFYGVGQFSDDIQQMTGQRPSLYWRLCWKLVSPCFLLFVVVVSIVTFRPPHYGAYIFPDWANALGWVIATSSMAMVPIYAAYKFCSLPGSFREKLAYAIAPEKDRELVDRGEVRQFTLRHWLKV
Description: (§1) Human embryonic kidney (HEK293) cells stably expressing the yellow-fluorescent protein (YFP)-tagged version of the human isoforms of SERT (abbreviated as SERT) and DAT (abbreviated as DAT) were used for the uptake inhibition and release assays. The generation and maintenance of stable, monoclonal cell lines expressing these transporters was conducted as described by ([Mayer F. P. et al., 2016]; [Mayer et al., 2016 FP.]). HEK293 cells were maintained in DMEM supplemented with heat-inactivated 10% FBS, 100 µg/100 ml streptomycin, 100 U/ml penicillin, and Geneticin (G418; 50 μg/ml) and cultured in a humidified atmosphere (5% CO2, 37°C). The cells were seeded at a density of 0.36 million cells/well onto 96-well plates previously coated (24 h) with poly-D-lysine (PDL).
(§2) The medium was removed and immediately replaced with 200 µL/well of Krebs-HEPES buffer (KHB; 10 mM HEPES, 120 mM NaCl, 3 mM KCl, 2 mM CaCl2·2H2O, 2 mM MgCl2·6H2O, 20 mM D-glucose; pH 7.3). The cells were pre-incubated with different concentrations of the drug in KHB at a final volume of 50 µL/well for 5 min (DAT, SERT). Immediately after, the pre-incubation solution was removed and the cells were incubated with the tritiated substrates, 0.02 µM [^3H]MPP^+ for the DAT (3 min) and 0.1 µM [^3H]5-HT for the SERT (1 min), along with different concentrations of the drug in KHB. Finally, the [^3H]substrate was removed and the cells were washed with ice-cold KHB followed by the addition of sodium dodecyl sulfate (SDS) 1%. The lysate was then added to the scintillation fluid, and the radioactivity was quantified with a beta-scintillation counter (Perkin Elmer, Waltham, MA, United States).
(§3) The uptake in the absence of the drug compound was normalized to 100%, being the percentage of the uptake in the presence of different concentrations of the drug expressed as a percentage thereof. 3–4 independent experiments were performed in duplicate.
(§4) Data were expressed as mean ± SEM. Competition curves were plotted and fitted by non-linear regression, and data were best fitted to a sigmoidal dose-response curve to obtain an IC50 value. 1/DAT IC50: 1/SERT IC50 was used to calculate transporter ratios. Data from batch release assays were statistically analyzed with a mixed-effects model, employing Šidák’s correction for multiple comparisons. One-way/two-way ANOVA or two-way ANOVA of repeated measures, followed by Tukey’s or Dunnett’s post hoc test, was also used when appropriate. The α error probability was set at 0.05 (p < 0.05). The size group for each experiment and statistical results are shown in the corresponding legend of figures. Statistical calculations were performed using GraphPad Prism (GraphPad Software, San Diego, CA, United States).

[2] = target: T2, hSERT (Homo sapiens, UniProt P31645); assay: Uptake inhibition assay, [3H]5-HT uptake in transfected HEK293 cells; type: cell-based
T2 construct: YFP (yellow-fluorescent protein); expressed in transfected cells
T2 sequence (P31645 whole entry): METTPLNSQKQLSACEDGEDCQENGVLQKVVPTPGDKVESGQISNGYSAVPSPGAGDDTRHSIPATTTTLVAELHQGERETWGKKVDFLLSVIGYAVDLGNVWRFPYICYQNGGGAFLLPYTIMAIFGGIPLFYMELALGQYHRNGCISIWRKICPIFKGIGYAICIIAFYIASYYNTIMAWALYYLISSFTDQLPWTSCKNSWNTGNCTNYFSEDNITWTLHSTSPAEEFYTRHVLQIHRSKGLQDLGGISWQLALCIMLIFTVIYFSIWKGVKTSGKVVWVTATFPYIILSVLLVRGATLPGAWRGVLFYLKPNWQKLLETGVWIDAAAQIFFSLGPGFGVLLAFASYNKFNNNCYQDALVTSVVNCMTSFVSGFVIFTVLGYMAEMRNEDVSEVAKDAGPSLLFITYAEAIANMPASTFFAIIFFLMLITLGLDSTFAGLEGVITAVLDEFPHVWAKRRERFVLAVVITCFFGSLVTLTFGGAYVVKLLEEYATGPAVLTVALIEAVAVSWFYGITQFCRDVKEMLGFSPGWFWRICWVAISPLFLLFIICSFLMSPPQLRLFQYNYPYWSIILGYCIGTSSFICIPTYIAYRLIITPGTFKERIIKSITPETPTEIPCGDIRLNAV
Description: as §1, §2, §3, §4

[3] = test system: c-fos mRNA; assay: c-fos mRNA expression (qPCR) in ventral and dorsal striatum; type: in vivo, mice; details: 10 mg/kg i.p., vs saline; for c-fos expression in the DS, 120 min: 120 min post injection; for c-fos expression in the VS, 120 min: 120 min after administration
Description: (§5) Mice were injected with an acute dose of 10 mg/kg i.p. of the corresponding synthetic cathinone or saline solution. The dose was chosen according to the behavioral results obtained since it caused significant response in both CPP and HLA tests in all compounds tested. 30 min or 2 h post-administration, mice were sacrificed by cervical dislocation and the VS, DS, and mPFC were dissected out ([Paxinos and Franklin, 2004]) using a mouse brain acrylic matrix (Agnthos, Sweden) and stored at -80°C until use. Total RNA was isolated following a standard TRIsure reagent–chloroform extraction protocol ([Duart-Castells et al., 2019]).
(§6) Reverse transcription polymerase chain reaction (RT-PCR) was carried out to obtain complementary DNA (cDNA) by using the High Capacity cDNA Reverse Transcription Kit (Applied Biosystems) and the Veriti thermal cycler (Applied Biosystems, Foster, CA, United States). Synthesis of cDNA was obtained by mixing 1,000 ng of total RNA with the corresponding volumes of each kit reagent to a final volume of 20 μL. Quantitative real-time polymerase chain reaction (qPCR) was performed by using the StepOnePlus^TM Real-Time PCR System and TaqMan PCR Master Mix (Applied Biosystems, Foster, CA, United States). 25 ng of cDNA was loaded in a final volume of 20 μL containing sequence-specific primers and TaqMan probes (Mm01204954_g1 for Arc, Mm04230607_s1 for bdnf, Mm00487425_m1 for c-fos, and Mm00607939_s1 for β-actin). Each sample was tested in duplicate. qPCR conditions were 2 min at 50°C, 10 min at 95°C, 40 cycles/15 s at 95°C, and 60 s at 60°C. Changes in gene expression were defined by using the comparative Ct method for each experimental sample. Gene expression was normalized by using the mean of Ct values of the housekeeping gene β-actin.

[4] = test system: Swiss CD-1 mice; assay: Horizontal locomotor activity (HLA); type: in vivo; details: for HLA after 30 mg/kg compared to the medium dose (10 mg/kg): 30 mg/kg vs 10 mg/kg i.p.; for HLA vs saline at the lowest dose: 3 mg/kg i.p., 60 min; for Persistence of the increase in locomotor activity: 10 mg/kg i.p.
[5] = test system: Arc mRNA; assay: Arc mRNA expression (qPCR) in ventral and dorsal striatum; type: in vivo, mice; details: 10 mg/kg i.p., 120 min after administration, vs saline
Description: as §5, §6

[6] = test system: T3, SERT; assay: Batch release assay, [3H]5-HT release from SERT-expressing HEK293 cells; type: cell-based, human; details: for [3H]5-HT release at the SERT (in words): compound close to its IC50, KHB vs KHB + monensin 10 µM
T3 construct: YFP (yellow-fluorescent protein); expressed in transfected cells
Description: as §1
HEK293 cells expressing the transporter of interest were preloaded with the tritiated substrate 0.08 μM [^3H]5-HT (SERT) or 0.1 μM [^3H]MPP^+ (DAT) in KHB (50 μL/well) for 20 min (5% CO2, 37°C). Subsequently, the cells were washed three times using KHB (200 μL/well) at room temperature. Afterward, a pre-incubation step of 10 min in KHB or in KHB + monensin (Mon) 10 μM was done. […] To determine the specificity of drug-induced reverse transport, selective transporter inhibitors 0.05 μM paroxetine (SERT) and 0.5 μM of GBR12909 (DAT) and effective releasers 10 μM p-chloroamphetamine (PCA; SERT) and 10 μM d-amphetamine (DAT) were used (Supplementary Figure S1). The resulting supernatant was collected and transferred to a new well every 2 min (four times for KHB/Mon and five times for each tested compound). Three independent experiments were performed in duplicate. Liquid scintillation cocktail was added to the wells with remaining cells (200 μL) and with the transferred supernatant (100 μL) and to the wells used for total uptake and activity measurements (200 μL). Total radioactivity present in the supernatant and in the remaining cells was set as 100%, and the amount of [^3H] substrate present in the supernatant was expressed as percentage of the total.
as §4

[7] = test system: Arc mRNA; parameters: method as in Giannotti et al., 2017; details: 30 min and 2 h after administration; ref Giannotti et al., 2017; cited from earlier work
[8] = test system: Swiss CD-1 mice; assay: Conditioned place preference (CPP); type: in vivo; details: 30 mg/kg i.p.
Description: For the behavioral and gene expression experiments, male Swiss CD-1 mice (Janvier, Le Genest, France) weighing 30–35 g (6–8 weeks old) were used. With the aim of reducing the number of animals and minimize their suffering, animal procedures were performed in accordance with the ARRIVE guidelines. All animal care and experimental protocols in this study were in accordance with the guidelines of the European Community Council (2010/63/EU), as amended by Regulation (EU) 2019/1010, and approved by the Animal Ethics Committee of the University of Barcelona under the supervision of the Autonomous Government of Catalonia. The animals were housed in temperature-controlled conditions (22 ± 1°C) under a 12 h light/dark cycle and had free access to food and drinking water. During the study, the animals were supervised immediately after injection and during the behavioral procedure as well as 24 h after injection, and different parameters were visually evaluated for humane endpoints, such as self-mutilations, strange vocalizations, abnormal posture, or a greater weight loss than 20%. The sample size was determined using GPower software. […]
The rewarding effects were determined using a place conditioning paradigm as described by [Duart-Castells et al. (2019]). […] The time spent in each compartment was recorded (Smart 3.0, Panlab, Spain). […]

[9] = test system: bdnf mRNA; assay: bdnf mRNA expression (qPCR) in medial prefrontal cortex; type: in vivo, mice; details: 10 mg/kg i.p., 120 min after administration, vs saline
Description: as §5
Reverse transcription polymerase chain reaction (RT-PCR) was carried out to obtain complementary DNA (cDNA) by using the High Capacity cDNA Reverse Transcription Kit (Applied Biosystems) and the Veriti thermal cycler (Applied Biosystems, Foster, CA, United States). Synthesis of cDNA was obtained by mixing 1,000 ng of total RNA with the corresponding volumes of each kit reagent to a final volume of 20 μL. Quantitative real-time polymerase chain reaction (qPCR) was performed by using the StepOnePlus^TM Real-Time PCR System and TaqMan PCR Master Mix (Applied Biosystems, Foster, CA, United States). […]

SMILES | IC50 [1] | hDAT/hSERT ratio [1] | IC50 [2] | c-fos expression in the DS, 30 min ([3]; 30 min after injection) | c-fos expression in the DS, 120 min [3] | HLA after 30 mg/kg compared to the medium dose (10 mg/kg) [4] | Arc gene expression in the DS, 120 min [5] | Arc gene expression in the VS, 120 min [5] | [3H]5-HT release at the SERT (in words) [6] | Arc mRNA levels in the striatum after acute injection [7] | Distance traveled ([4]; 10 mg/kg, independent experiment, N = 15) | c-fos expression in the VS, 120 min [3] | HLA vs saline at the lowest dose [4] | Persistence of the increase in locomotor activity [4] | CPP rewarding effects vs saline at the highest dose [8] | bdnf mRNA levels in the mPFC, 120 min [9] | c-fos expression in the VS, 30 min ([3]; 30 min after injection) | [3H]5-HT release at SERT-expressing HEK293 cells, max. ([6]; compound close to its IC50 (NEP 6 µM))
CCCC(NCC)C(=O)c1ccc(C)cc1 (stereo not drawn) [4-MeAP, 4’-methyl-α-ethylaminovalerophenone] | 0.14 ± 0.02 µM | 93 | 13.3 ± 0.89 µM | significant overexpression | increased | significant increase | significant increase | significant increase | most potent |  |  |  |  |  |  |  |  | 
CCCC(C(=O)c1ccccc1)N1CCCC1 (stereo not drawn) [α-PVP] |  |  |  |  |  |  |  |  |  | did not alter |  |  |  |  |  |  |  | 
CCCC(NC)C(=O)c1ccc(C)cc1 (stereo not drawn) [4-MPD, 4’-methyl-α-methylaminovalerophenone] | 0.29 ± 0.05 µM | 108 | 30.9 ± 6.23 µM |  |  | significant increase |  |  | most potent |  |  |  |  |  |  |  |  | 
CCCC(NC)C(=O)c1ccc2c(c1)OCO2 (stereo not drawn) [Pentylone, 3’,4’-methylendioxy-α-methylaminovalerophenone] | 0.51 ± 0.07 µM | 45 | 23.2 ± 2.68 µM |  | increased | significant increase | significant increase | significant increase | milder release |  |  |  |  |  |  |  |  | 
COC(=O)[C@H]1[C@@H](OC(=O)c2ccccc2)C[C@@H]2CC[C@H]1N2C [Cocaine, reference compound] |  |  |  |  |  |  |  |  |  |  | 16,018 ± 1,118 cm |  |  |  |  |  |  | 
CCCC(NC)C(=O)c1ccccc1 (stereo not drawn) [Pentedrone, α-methylaminovalerophenone] | 0.21 ± 0.02 µM | 666 | 138 ± 13.4 µM |  | increased | ceiling effect |  |  | milder release |  |  | significant increase |  |  |  |  |  | 
CCCC(NCC)C(=O)c1ccccc1 (stereo not drawn) [N-Ethyl-pentedrone, α-ethylaminovalerophenone] | 0.1 ± 0.03 µM | >1,000 | 127 ± 5.14 µM | significant overexpression | increased | ceiling effect | significant increase | significant increase | most potent |  |  | significant increase | increase | more than 1 hour |  |  |  | 
CCCC(NCC)C(=O)c1ccc2c(c1)OCO2 (stereo not drawn) [N-Ethyl-pentylone, 3’,4’-methylendioxy-α-ethylaminovalerophenone] | 0.13 ± 0.01 µM | 51 | 6.37 ± 0.09 µM | increased |  | significant decrease | significant increase | significant increase | smallest |  |  |  | increase | more than 1 hour | significant increase | significant overexpression | significant overexpression | ≈ 5 % total cpm
CCCC(C(=O)c1ccc2c(c1)OCO2)N1CCCC1 (stereo not shown) [MDPV, 3,4-methylenedioxypyrovalerone] |  |  |  |  |  |  |  |  |  | increased |  |  |  |  |  |  |  | 
